For one compound, IC50 and inhibition results are on record in patent EP0877740B1, “THIOL DERIVATIVES WITH METALLOPEPTIDASE INHIBITORY ACTIVITY” (ZAMBON GROUP S.p.A., priority 1995, dated 1997).

Test [1] deals with T1, NEP (Rattus norvegicus, UniProt P07861).
T1 sequence (P07861 1-750): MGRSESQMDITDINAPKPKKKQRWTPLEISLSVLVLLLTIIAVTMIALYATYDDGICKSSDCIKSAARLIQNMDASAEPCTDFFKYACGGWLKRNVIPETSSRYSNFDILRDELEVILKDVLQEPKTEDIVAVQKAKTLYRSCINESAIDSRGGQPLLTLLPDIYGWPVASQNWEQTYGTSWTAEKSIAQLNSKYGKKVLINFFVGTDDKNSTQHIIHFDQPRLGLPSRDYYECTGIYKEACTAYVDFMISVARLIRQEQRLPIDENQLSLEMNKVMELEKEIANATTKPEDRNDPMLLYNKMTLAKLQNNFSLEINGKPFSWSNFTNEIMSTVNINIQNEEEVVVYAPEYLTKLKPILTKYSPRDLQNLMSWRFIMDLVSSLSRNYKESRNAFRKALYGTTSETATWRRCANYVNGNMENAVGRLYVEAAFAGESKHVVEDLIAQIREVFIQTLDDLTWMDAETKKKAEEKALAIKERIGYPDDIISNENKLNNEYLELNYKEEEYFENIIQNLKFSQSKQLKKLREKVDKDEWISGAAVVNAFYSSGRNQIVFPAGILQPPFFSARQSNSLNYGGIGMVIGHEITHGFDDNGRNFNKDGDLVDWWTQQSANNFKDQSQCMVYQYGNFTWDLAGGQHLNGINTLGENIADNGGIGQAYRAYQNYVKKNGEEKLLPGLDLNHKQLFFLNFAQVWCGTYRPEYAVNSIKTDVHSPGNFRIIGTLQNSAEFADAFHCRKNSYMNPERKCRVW
Nature of the test: In vitro NEP-inhibitory activity in rat kidney cortex membranes ([3H][Leu5]-enkephaline hydrolysis). Format: biochemical. Set-up: Kidneys were removed from male Sprague-Dawley rats weighing approximately 300 g; from tissue; host or cells: rat kidney cortex membranes (male Sprague-Dawley). The following applies: [3H][Leu5]-enkephaline 15 nM, 30°C. Here is the method:
The NEP-inhibitory activity was evaluated in rat kidney cortex membranes prepared according to the procedure described by T. Maeda et al. in Biochim. Biophys.
Kidneys were removed from male Sprague-Dawley rats weighing approximately 300 g and kept at 4°C.
Kidney cortex was carefully dissected, finely minced and suspended in a homogenization buffer (10 mM sodium phosphate pH 7.4 containing 1 mM MgCl2, 30 mM NaCl, 0.02% NaN3) 1:15 weight/volume.
The tissue was then cold homogenized for 30 seconds using an Ultra-Turrax homogenizer.
The membranes were collected from the buffer/sucrose interface, washed twice with 50 mM TRIS/HCl buffer (pH 7.4) and resuspended into the same buffer for storage in small aliquots at -80°C until use.
The NEP-inhibitory activity was evaluated by using the method described by C.
Aliquots of the membrane suspension prepared as above described (concentration 5 µg/ml of proteins) were preincubated in the presence of an aminopeptidase inhibitor (Bestatin - 1 mM) for 10 minutes at 30°C.
Incubation (20 minutes at 30°C) was stopped by adding HCI 0.1M (100 µl).
The formation of the metabolite [^3H]Tyr-Gly-Gly was quantified by chromatography on polystyrene columns (Porapak Q).
The percentage of inhibition of the metabolite formation in the membrane preparations treated with the compounds of formula I and with the comparative compounds with respect to the untreated membrane preparations was expressed as IC50 (nM) value.

Test [2] concerns the target T1, NEP. Nature of the test: Ex vivo NEP-inhibitory activity in kidney homogenates of treated SHR (GAAP substrate). Set-up: After the removal of the kidneys from SHR, the renal tissue was homogenized; from tissue; host or cells: kidney homogenate of spontaneously hypertensive rats (SHR); species or system spontaneously hypertensive rats (SHR). The following applies: rat, SHR kidneys; for inhibition at 30 µmol/kg: oral 30 µmoles/kg. On the procedure:
The ex-vivo ACE/NEP-inhibitory activity, in particular, was determined by evaluating the enzymatic activity in tissue homogenates (lung and kidney for ACE and NEP activity, respectively) from spontaneously hypertensive rats (SHR) treated with the tested compounds by intravenous or oral route.
The ex vivo NEP-inhibitory activity was evaluated according to the procedure reported in the literature by M. Orlowsky et al., in Biochemistry 1981, 20, 4942-4950.
The inhibitory activity of the compounds of formula I was evaluated in kidneys of spontaneously hypertensive rats (SHR), 5 minutes after i.v. injection (0.6 and 21 µmoles/kg) and 30 minutes, 60 minutes and 4 hours after oral administration (30 µmoles/kg) of the tested compounds.
After the removal of the kidneys from SHR, the renal tissue was homogenized and incubated for 15 minutes at 37°C in the presence of Glutaryl-Ala-Ala-Phe-2-naphthylamide (GAAP), as a substrate, and aminopeptidase M at pH 7.6.
The reaction was stopped by adding an aqueous solution at 10% of trichloroacetic acid.
The released 2-naphthylamine was determined by adding fast garnet dye (2 ml).
Enzyme reaction rates were determined by measuring the increase in the optical density at 524 nm (OD524) with respect to a standard obtained with 2-naphthylamine complexed with fast garnet.
The NEP-inhibitory activity of the tested compounds was expressed as percentage of NEP-inhibition in SHR kidneys.

Read-outs that look alike come from different tables or passages of the source.

A word on the IC50: it is the concentration that inhibits the measured activity by half. A low value points to greater potency in that assay. Usually inhibition stands for the share of the control response that was lost under treatment. The compound `O=C(N[C@@H](Cc1ccc(-c2nccs2)cc1)C(=O)O)[C@@H](CS)Cc1ccccc1` [Compound 16, N-[(2S)-3-mercapto-2-phenylmethylpropionyl]-4-(2-thiazolyl)-L-phenylalanine] had an IC50 in test [1] of 1.8 nM. The compound also returned an inhibition at 0.6 µmol/kg in test [2] (iv, i.v. 0.6 µmoles/kg, 5 minutes after injection) of 34%. For the same compound, the inhibition at 21 µmol/kg in test [2] (iv, i.v. 21 µmoles/kg, 5 minutes after injection) turned out to be 49%. For the same compound, the inhibition at 30 µmol/kg in test [2] (30 minutes after administration, read-out: NEP-inhibition (kidneys) 30 minutes) was found to be 55%; in test [2] (60 minutes after administration, read-out: NEP-inhibition (kidneys) 60 minutes) it was 39%; in test [2] (4 hours after administration, read-out: NEP-inhibition (kidneys) 4 hours), 40%.
